This assay has as its system cardiac tissue generated from cardiomyocytes derived from human ESCs. Briefly: Electrophysiological recordings of cardiac tissue (CardioSpot) on porous multi-electrode arrays. The format is cell-based. The settings on record: for repolarising potential (delay measured from the first signal): 30 nM E4031, control 140 ms. As for the experimental part:
Beating aggregates are maintained at room temperature in cryo-vials full of culture medium (Human cardiovascular progenitor cells develop from a KDR+embryonic-stem-cell-derived population. Yang L, et al., (2008). […] Culture Medium-StemPro 34 and 10 ng/mL VEGF CardioSpot made using primary or stem cell derived cardiomyocytes are placed onto the porous MEAs. Electrophysiological recordings were performed either through the supporting membrane or from under the membrane in order to get a direct contact of the tissues with recording electrodes. Control recording were performed using the culture medium as well a the solution used for reference molecules ([…], and lidocaine) Pharmacological experiments were carried out using reference compounds to characterise and validate the cardiac tissue generated from cardiomyocytes derived from human ESCs and engineered using the method of invention.

The values that follow come from patent US20110287982A1, “CELL CULTURE DEVICE” (priority 2008, published 2011).

The structures appear in SMILES notation.

With `Cc1cccc(CCN2CCC(C(=O)c3ccc(NS(C)(=O)=O)cc3)CC2)n1` [E4031], the “repolarising potential (delay measured from the first signal)” value reads like this: (after 5 min) 155 ms; (after 15 min) 173 ms.
Regarding `CCN(CC)CC(=O)Nc1c(C)cccc1C` [lidocaine], the “decrease of the amplitude of the electrophysiological signals” value (30 uM lidocaine, after 6 minutes) stood at 50%. Moreover, the “amplitude of the first signal (predominantly dependent of sodium channel opening)” value (lidocaine, within few minutes) is “dramatic decrease”.
